In PMC9081329, “Pharmacokinetics, Mass Balance, Excretion, and Tissue Distribution of Plasmalogen Precursor PPI-1011” (Frontiers in Cell and Developmental Biology, 2022):

Assay: Single dose tissue distribution study (QWBA, LSC of blood and plasma)
Format: in vivo, Sprague-Dawley rats
Description: Six male rats were administered a single oral dose of [^14C]PPI-1011 at 100 mg/kg (200 μCi/kg) and one rat was sacrificed at each of the following time points after the administration of the dose: 8, 12, 18, 24, 48, or 168 h. Terminal blood was collected by cardiac puncture directly into tubes with K2EDTA, an aliquot was stored at 4°C until LSC was performed for radioactivity, while the remaining blood was processed to plasma and stored at −20°C until LSC. Following blood collection, the carcasses were frozen in a cold bath with hexanes and dry ice for at least 8 min and then dried and stored at −70°C for at least 5 h. The carcasses were transferred to a −20°C freezer for at least 12 h before embedding.
QWBA was used to determine radioactivity concentrations in the caecum (contents and mucosa), large intestine (contents and mucosa), small intestine (contents and mucosa), stomach (contents and mucosa), brain, choroid plexus, spinal cord, bone, skin, adrenal gland, pineal body, pituitary gland, thyroid gland, liver, kidney (cortex, medulla and whole kidney), urinary bladder (contents and wall), brown fat, white fat, eye (lens, uveal tract and whole eye), epididymis, prostate gland, testis, ovary, uterus, lung, exorbital lachrymal gland, Harderian gland, pancreas, salivary gland, skeletal muscle, myocardium, cardiac blood, bone marrow, lymph node, spleen, and thymus. As well, LSC was used to determine the total radioactivity in the whole blood and plasma.
The whole-body cryosectioning technique described by ([Ullberg, 1977]) was the basis for embedding and cryosectioning the rats assigned to this study. Each frozen carcass was shaved, and then the limbs and tail were removed prior to embedding. Chilled (4°C) 3% CMC (low viscosity) was utilized to provide a firm support of reinforced ice around each rat and for a secure attachment to the microtome stage. Upon thorough freezing of the embedding medium surrounding each rat, the frozen CMC block was removed from the freezing bath and four 3/8 inch holes were drilled into the block. One cryosection quality control standard (CQCS) was prepared with a known amount of radioactivity and at least 1 ml aliquots were added to each of the four drilled holes. CQCS data were utilized to evaluate the overall performance of the QWBA assay.
Each frozen rat was sagittally trimmed (50–100 μm) at −20°C until exposure of a few target tissues employing a Leica Cryomacrocut heavy-duty microtome (Leica Microsystems Inc.,). Disposable stainless steel Feather type H45L knives (Feather Safety Razor Co., Ltd.) were utilized for trimming and sectioning each frozen rat. Several thinner sections (50 μm) were discarded prior to obtaining multiple 50 μm sections at various cryosectioning levels for QWBA analysis. Upon the collection of at least 60 target tissues in multiple cryosectioning levels, the cryosections were kept in the Cryomacrocut cryochamber for a minimum of 18 h for dehydration depending upon the number of cryosections within the cryochamber. After dehydration was complete, the cryosections were transferred to ambient temperature for processing. Mounted whole-body cryosections and a set of 15 standards were sandwiched between a standard phosphor screen and an exposure cassette. All cryosections were exposed to the phosphor screen for 4-days in a cabinet protected with lead prior to scanning using a Typhoon PhosphorImager (Cytiva). MCID™ Analysis software (InterFocus Ltd.) was utilized to generate a calibration curve of the STD nominal concentrations (nCi/g) versus PhosphorImager response (counts/μm^2 minus background) by weighted (1/x) linear regression analysis ([Potchoiba et al., 1995]; [Potchoiba et al., 1998]). The linear regression curve was then utilized to determine the concentration (nCi/g) of total radioactivity in whole-body tissues and blood. Radioactivity concentrations were expressed as μg Eq/g based on the specific activity of the compound in the final dose formulations. […]

[1] = 48 h post single oral 100 mg/kg
[2] = 168 h post single oral 100 mg/kg

CC/C=C\C/C=C\C/C=C\C/C=C\C/C=C\C/C=C\CCC(=O)O[C@H](CO[14CH2]CCCCCCCCCCCCCCC)COC(=O)CCCCC1CCSS1 (stereo partly shown) [[^14C]PPI-1011]
Radioactivity concentration, Small Intestines [1]: 43.3 μg equivalents/g | Radioactivity concentration, Spinal Cord [1]: 2.56 μg equivalents/g | Radioactivity concentration, Spleen [1]: 33.1 μg equivalents/g | Radioactivity concentration, Stomach [1]: 8.01 μg equivalents/g | Radioactivity concentration, Testis [1]: 4.02 μg equivalents/g | Radioactivity concentration, Thalamus [1]: 1.91 μg equivalents/g | Radioactivity concentration, Thymus [1]: 9.58 μg equivalents/g | Radioactivity concentration, Thyroid [1]: 27.2 μg equivalents/g | Radioactivity concentration, Whole Brain [1]: 2.45 μg equivalents/g | Radioactivity concentration, Adipose - Brown [2]: 89.0 μg equivalents/g | Radioactivity concentration, Adipose - Brown (Vessel Wall) [2]: 76.7 μg equivalents/g | Radioactivity concentration, Adipose - Subcutaneous [2]: 89.3 μg equivalents/g | Radioactivity concentration, Adipose - Visceral [2]: 90.7 μg equivalents/g | Radioactivity concentration, Adrenal Gland [2]: 142 μg equivalents/g | Radioactivity concentration, Bladder Wall [2]: < 0.485 μg equivalents/g | Radioactivity concentration, Blood - QWBA [2]: 2.56 μg equivalents/g | Radioactivity concentration, Bone Marrow [2]: 4.69 μg equivalents/g | Radioactivity concentration, Cerebellum [2]: 3.59 μg equivalents/g | Radioactivity concentration, Cerebrum [2]: 2.94 μg equivalents/g | Radioactivity concentration, Choroid Plexus [2]: 10.4 μg equivalents/g | Radioactivity concentration, Colliculus [2]: 3.97 μg equivalents/g | Radioactivity concentration, Diaphragm [2]: 11.7 μg equivalents/g | Radioactivity concentration, Epididymis [2]: 7.75 μg equivalents/g | Radioactivity concentration, Esophagus [2]: 5.34 μg equivalents/g | Radioactivity concentration, Exorbital Lacrimal Gland [2]: 7.36 μg equivalents/g | Radioactivity concentration, Gastric Mucosa [2]: 14.5 μg equivalents/g | Radioactivity concentration, Harderian Gland [2]: 3.67 μg equivalents/g | Radioactivity concentration, Intra-Orbital Lacrimal Gland [2]: 5.01 μg equivalents/g | Radioactivity concentration, Kidney [2]: 14.5 μg equivalents/g | Radioactivity concentration, Large Intestines [2]: 14.0 μg equivalents/g | Radioactivity concentration, Liver [2]: 7.50 μg equivalents/g | Radioactivity concentration, Lung [2]: 11.2 μg equivalents/g | Radioactivity concentration, Lymph Node [2]: 12.3 μg equivalents/g | Radioactivity concentration, Medulla Oblongata [2]: 3.13 μg equivalents/g | Radioactivity concentration, Muscle [2]: 7.01 μg equivalents/g | Radioactivity concentration, Myocardium [2]: 13.4 μg equivalents/g | Radioactivity concentration, Nasal Turbinates [2]: 4.29 μg equivalents/g | Radioactivity concentration, Ocular - Uveal Tract [2]: 6.48 μg equivalents/g | Radioactivity concentration, Ocular - Whole Eye [2]: 1.55 μg equivalents/g | Radioactivity concentration, Olfactory Bulb [2]: 2.25 μg equivalents/g | Radioactivity concentration, Pancreas [2]: 18.2 μg equivalents/g | Radioactivity concentration, Parotid Gland [2]: 12.3 μg equivalents/g | Radioactivity concentration, Pineal Gland [2]: 12.0 μg equivalents/g | Radioactivity concentration, Pituitary Gland [2]: 12.9 μg equivalents/g | Radioactivity concentration, Preputial Gland [2]: 69.0 μg equivalents/g | Radioactivity concentration, Prostate [2]: 4.44 μg equivalents/g | Radioactivity concentration, Renal Cortex [2]: 15.3 μg equivalents/g | Radioactivity concentration, Renal Medulla [2]: 11.8 μg equivalents/g | Radioactivity concentration, Salivary Gland [2]: 15.4 μg equivalents/g | Radioactivity concentration, Seminal Vesicles [2]: < 0.485 μg equivalents/g | Radioactivity concentration, Skin - Non-Pigmented [2]: 10.2 μg equivalents/g | Radioactivity concentration, Small Intestines [2]: 139 μg equivalents/g | Radioactivity concentration, Spinal Cord [2]: 3.33 μg equivalents/g | Radioactivity concentration, Spleen [2]: 9.36 μg equivalents/g | Radioactivity concentration, Stomach [2]: 4.97 μg equivalents/g | Radioactivity concentration, Testis [2]: 3.08 μg equivalents/g | Radioactivity concentration, Thalamus [2]: 2.78 μg equivalents/g | Radioactivity concentration, Thymus [2]: 7.84 μg equivalents/g | Radioactivity concentration, Thyroid [2]: 18.9 μg equivalents/g | Radioactivity concentration, Whole Brain [2]: 3.08 μg equivalents/g | Decline of radioactivity from peak concentration, brown adipose (by 168 HPD, single dose): approximately 5 fold | Decline of radioactivity from peak concentration, subcutaneous adipose (by 168 HPD, single dose): ~2 fold | Decline of radioactivity from peak concentration, visceral adipose (by 168 HPD, single dose): ~3 fold | Average concentration in choroid plexus, pineal gland, pituitary gland versus non-circumventricular CNS tissues (seven days after single dose): approximately 4 fold | Radioactivity in urine within the urinary bladder (single dose): no detection of radioactivity | Time of highest blood concentration (single dose): 8 HPD | Time of highest peak concentration, bladder wall (single dose): 8 HPD | Time of highest peak concentration, brown adipose (single dose): 12 HPD | Time of highest peak concentration, cecum (single dose): 12 HPD | Time of highest peak concentration, choroid plexus (single dose): 12 HPD | Time of highest peak concentration, epididymis (single dose): 12 HPD | Time of highest peak concentration, esophagus (single dose): 8 HPD | Time of highest peak concentration, gastric mucosa (single dose): 8 HPD | Time of highest peak concentration, large intestines (single dose): 12 HPD | Time of highest peak concentration, pineal gland (single dose): 48 HPD | Time of highest peak concentration, pituitary gland (single dose): 18 HPD | Time of highest peak concentration, preputial gland (single dose): 12 HPD | Time of highest peak concentration, prostate (single dose): 24 HPD | Time of highest peak concentration, small intestines (single dose): 8 HPD | Time of highest peak concentration, stomach (single dose): 12 HPD | Time of highest peak concentration, subcutaneous adipose (single dose): 12 HPD | Time of highest peak concentration, testis (single dose): 18 HPD | Time of highest peak concentration, visceral adipose (single dose): 12 HPD | Time of peak levels, non-circumventricular CNS tissue (single dose): 168 HPD | Concentration in choroid plexus, pineal gland, pituitary gland versus non-circumventricular CNS tissues (throughout the time course, single dose): approximately 4 fold
